One assay has as its system Crassostrea virginica. The assay can be described thus: Inhibitory activity against KDN-sialidase from Crassostrea virginica at a concentration of 1 mM.
Assay [1] can be described thus: Inhibitory activity against influenza virus A(N9) sialidase.
Assay [2] can be described thus: Inhibitory activity against Vibrio cholerae sialidase.
The next assay concerns Clostridium perfringens. The assay can be described thus: Inhibitory activity against sialidase from Clostridium perfringens at a concentration of 0.1 mM.
The subject of the next assay is influenza virus a. In words: Inhibitory activity against influenza virus A(N9) sialidase at a concentration of 0.1 mM.
In another assay the test system is Vibrio cholerae. In words: Inhibitory activity against Vibrio cholerae sialidase at a concentration of 0.1 mM.
Assay [3] concerns Salmonella enterica subsp. enterica serovar Typhimurium. The assay can be described thus: Inhibitory activity sialidase from Salmonella Typhimurium at a concentration of 0.1 mM.

The term inhibition denotes the change of the read-out against control, counted positive when it falls. Lower therefore signals little suppression. A word on the Ki: it is a dissociation constant, usually derived from enzyme kinetics or from competition with a known ligand. The low end stands for a stronger hold on the target, the high end for a looser hold on the target.

In the case of `CC(=O)N[C@H]1[C@H]([C@H](O)[C@H](O)CO)OC(C(=O)O)=C[C@@H]1O` [NEU5AC2EN], the inhibition with Crassostrea virginica turned out to be 20%. In addition, the Ki in assay [1] was 1.3 µM; in assay [2] it was 3.4 µM.
Molecule `O=C(O)C1=CC(O)C(O)C([C@H](O)[C@H](O)CO)O1` (stereo partly specified) returned an inhibition in the assay with Crassostrea virginica of 95%.
For `CC(=O)NC1C(O)C=C(C(=O)O)OC1OC(C)C` (stereo unspecified), the inhibition with Clostridium perfringens amounted to 24%; in the assay with influenza virus a, 100%; in the assay with Vibrio cholerae, 25%; in assay [3], 24%. Besides, the Ki in assay [1] was 2.7 µM; in assay [2], 120 µM.
In the case of `CC(C)OC1OC(C(=O)O)=CC(O)C1O` (stereo unspecified), the inhibition in the assay on Crassostrea virginica is 6%.

Source of the values: ChEMBL document CHEMBL1131804, “Synthesis of delta4-beta-D-glucopyranosiduronic acids as mimetics of 2,3-unsaturated sialic acids for sialidase inhibition” (Bioorg Med Chem Lett, 1999).
